pKd: −log10 of the molar value.

The target in this assay is Muscarinic acetylcholine receptor M3 (Homo sapiens, UniProt P20309). Put plainly: Antagonist activity at human recombinant muscarinic M3 receptor expressed in CHO cells assessed as inhibition of acetylcholine-induced calcium mobilization by FLIPR based single concentration kinetic assay. (Calcium flux is commonly read through the fluorescence of an indicator in the cells.)
Chain of Muscarinic acetylcholine receptor M3 (P20309 whole entry): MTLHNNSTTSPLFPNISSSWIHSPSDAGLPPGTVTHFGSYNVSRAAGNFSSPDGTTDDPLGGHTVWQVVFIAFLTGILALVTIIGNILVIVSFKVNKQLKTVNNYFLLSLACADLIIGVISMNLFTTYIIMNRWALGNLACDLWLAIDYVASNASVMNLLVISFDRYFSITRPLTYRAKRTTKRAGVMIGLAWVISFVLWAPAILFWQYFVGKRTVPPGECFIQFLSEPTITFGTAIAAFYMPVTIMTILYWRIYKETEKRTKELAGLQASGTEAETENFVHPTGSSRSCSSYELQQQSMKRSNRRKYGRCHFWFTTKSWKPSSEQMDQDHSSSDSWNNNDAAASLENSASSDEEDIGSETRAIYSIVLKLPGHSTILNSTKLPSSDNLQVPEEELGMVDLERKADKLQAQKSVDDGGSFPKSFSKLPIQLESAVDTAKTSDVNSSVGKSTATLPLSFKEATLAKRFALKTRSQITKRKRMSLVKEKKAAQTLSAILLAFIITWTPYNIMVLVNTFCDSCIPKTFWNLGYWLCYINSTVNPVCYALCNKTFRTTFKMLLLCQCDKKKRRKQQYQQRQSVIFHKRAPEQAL
In general, pKd refers to the negative decadic logarithm of the Kd, by convention in mol/L. With `CC1CN(Cc2cccc(-c3cc(CNC(=O)c4cccc(CN5CCN(C)CC5)c4)ccc3F)c2)CCN1` (stereo not drawn), the pKd was 10.50.

For `CC1CN(Cc2cccc(-c3cc(CNC(=O)c4cccc(CN5CCN(CCCO)CC5)c4)ccc3F)c2)CCN1` (stereo not drawn), the pKd is 10.20.

Consider `CC1CN(Cc2cccc(-c3cc(CNC(=O)c4cccc(CN5CCCN(C)CC5)c4)ccc3F)c2)CCN1` (stereo not drawn), for which the pKd was 9.60.

Turning to `CC1CN(Cc2cccc(-c3cc(CNC(=O)c4cccc(CN(C)CCCN(C)C)c4)ccc3F)c2)CCN1` (stereo not drawn), the pKd was 9.70.

Turning to `CC1CN(Cc2cccc(-c3cc(CNC(=O)c4cccc(CN5CCN(C=O)CC5)c4)ccc3F)c2)CCN1` (stereo not drawn), the pKd was 10.10.

For the compound `CC1CN(Cc2cccc(-c3cc(CNC(=O)c4cccc(CN5CCOCC5)c4)ccc3F)c2)CCN1` (stereo not drawn), the pKd is 9.90.

`CC1CN(Cc2cccc(-c3cc(CNC(=O)c4cccc(CN5CCCCC5)c4)ccc3F)c2)CCN1` (stereo not drawn): the negative-log Kd (pKd) is 9.20.

`CC1CN(Cc2cccc(-c3cc(CNC(=O)c4cccc(CN(C)C)c4)ccc3F)c2)CCN1` (stereo not drawn): the pKd is 8.50.

These data come from BindingDB's records for doi:10.1016/j.bmcl.2009.01.098 (Glaxosmithkline, 2009).
